Assay results: PubChem BioAssay AID1963865 (Molecular Pharmacology Branch, DTP, NCI, 2024)

System: KRAS PDC multicell spheroid viability
Experiment: Anticancer human tumor 825966-067-R-J1-PDC patient-derived colon carcinoma cell line growth inhibition [KRAS2]
Conditions: for IC50: curve of first compound; for viability, T/C: stronger effect = lower value
Excerpt: Multicellular complex tumor spheroid response to RAS pathway inhibitors in combination with a targeted agents in patient-derived cell lines with oncogenic KRAS variants from multiple cancer types
A high-throughput screen of multi-cell type tumor spheroids was designed to identify active combinations of targeted small molecules and KRAS pathway inhibitors. Complex spheroids include a stromal component modeled by human endothelial cells (HUVEC) and fibroblasts modeled by human mesenchymal stem cells (MSCs). The concentration ranges selected for each drug and investigational agent were based upon clinically achievable concentrations if the clinical Cmax of the agent was known.
Compounds. The drugs and investigational agents: BI-3406 (NSC825286), BAY-293 (NSC824723), batoprotafib (TNO155; NSC825523), sotorasib (AMG 510; NSC818433), MRTX1257 (NSC819558), elimusertib (BAY 1895344; NSC800525), molibresib (GSK525762; NSC774829), temuterkib (LY3214996; NSC803410), venetoclax (NSC766270), alisertib (NSC759677), olaparib (NSC753686), talazoparib (NSC767125), erdafitinib (NSC781556), ipatasertib (NSC767898), cabozantinib (NSC761068), nintedanib (NSC756659), abemaciclib (NSC768073), docetaxel (NSC628503), trametinib (NSC758246), and sapanisertib (NSC764658) were obtained from the National Cancer Institute (NCI) Developmental Therapeutics Program Chemical Repository. The FDA-approved anticancer drug set is available from the Developmental Therapeutics Program. […] The stock solutions were prepared in dimethyl sulfoxide (DMSO, Sigma-Aldrich, St. Louis, MO, cat. D2650) at 800-fold the tested concentration and stored at -70 degrees C prior to their use. All drugs and investigational agents were tested over a range starting from a high concentration at or near the clinical Cmax and decreasing in half-log increments. If the clinical Cmax for an agent had not been determined, the highest concentration tested was 10 microM.
Cell Culture. All cells were maintained in an incubator at 37 degrees C and 5% CO2 with 95% humidity. The PDC lines were cultured according to standard operating procedures established by the NCI PDMR (https://pdmr.cancer.gov/sops/default.htm). Briefly, all PDCs were thawed and cultured in Matrigel-coated flasks prepared with a working solution of 1X Ham's F-12 nutrient mix, without supplementation (Invitrogen, Waltham, MA, cat. 11765054), 100 U/mL penicillin-streptomycin (Invitrogen, cat. 15140122), and 2.5% Matrigel (Corning Inc., Corning, NY, cat. 354248) for the first three passages. All PDCs were cultured in complete DMEM/F-12 media containing advanced DMEM/F-12 (Invitrogen, cat. 12634028), 4.9% defined fetal bovine serum, heat inactivated (HyClone Laboratories Inc., Logan, UT, cat. SH30070.03HI), 389 ng/mL hydrocortisone (Sigma-Aldrich, cat. H4001), 9.7 ng/mL human EGF recombinant protein (Invitrogen, cat. PHG0313), 23.4 microg/mL adenine (Sigma-Aldrich, cat. A2786), 97.3 U/mL penicillin-streptomycin (Invitrogen, cat. 15140122), 1.9 mM L-glutamine (Invitrogen, cat. 25030081), and 9.7 microM Y-27632 dihydrochloride (Tocris Bioscience, Bristol, United Kingdom, cat. 1254). The PDCs were cultured in complete DMEM/F12 media without 9.7 microM Y-27632 dihydrochloride for at least two passages prior to the screen. The established cell line HOP-62 was cultured in RPMI 1640 medium, HEPES (Invitrogen, cat. 22400105) with 10% defined fetal bovine serum (HyClone Laboratories Inc., cat. SH30070.03) and 2 mM L-glutamine (Invitrogen, cat. 25030081). The pooled donor HUVEC were cultured in endothelial cell growth medium 2 (PromoCell, Heidelberg, Germany, cat. C-22011) and the hMSC were cultured in mesenchymal stem cell growth medium 2 (PromoCell, cat. C-28009). For all experiments, HUVEC and hMSC were used at passages </=5, while the malignant cell lines were used at passages </=15. […]

[1] = second compound 0.1 µM, first compound 0.01 µM
[2] = second compound 0.1 µM, first compound 0.0316 µM
[3] = second compound 0.1 µM, first compound 0.1 µM
[4] = second compound 0.316 µM, first compound 0.01 µM
[5] = second compound 0.316 µM, first compound 0.0316 µM
[6] = second compound 0.316 µM, first compound 0.1 µM
[7] = second compound 1 µM, first compound 0.01 µM
[8] = second compound 1 µM, first compound 0.0316 µM
[9] = second compound 1 µM, first compound 0.1 µM
[10] = second compound 3.16 µM, first compound 0.01 µM
[11] = second compound 3.16 µM, first compound 0.0316 µM
[12] = second compound 3.16 µM, first compound 0.1 µM
[13] = second compound 10 µM, first compound 0.01 µM
[14] = second compound 10 µM, first compound 0.0316 µM
[15] = second compound 10 µM, first compound 0.1 µM
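Also: spheroids exposed to compounds for 7 days.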
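For viability, T/C in this document: 100% = DMSO vehicle control viability.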

CC(=O)OC12COC1CC(O)C1(C)C(=O)C(O)C3=C(C)C(OC(=O)C(O)C(NC(=O)OC(C)(C)C)c4ccccc4)CC(O)(C(OC(=O)c4ccccc4)C21)C3(C)C (stereo not given) + C=CC(=O)N1CCN(c2nc(=O)n(-c3c(C)ccnc3C(C)C)c3nc(-c4c(O)cccc4F)c(F)cc23)C(C)C1
IC50 (second compound 0.1 µM): < 10 nM | IC50 (second compound 0.316 µM): < 10 nM | IC50 (second compound 1 µM): < 10 nM | IC50 (second compound 3.16 µM): < 10 nM | IC50 (second compound 10 µM): < 10 nM | viability, T/C [1]: 33.9% | viability, T/C [2]: 30.6% | viability, T/C [3]: 20.5% | viability, T/C (second compound 0.1 µM, first compound 0.316 µM): 20.9% | viability, T/C (second compound 0.1 µM, first compound 1 µM): 22.8% | viability, T/C (second compound 0.1 µM, first compound 3.16 µM): 31.5% | viability, T/C [4]: 26.8% | viability, T/C [5]: 24% | viability, T/C [6]: 24.6% | viability, T/C (second compound 0.316 µM, first compound 0.316 µM): 26% | viability, T/C (second compound 0.316 µM, first compound 1 µM): 28.5% | viability, T/C (second compound 0.316 µM, first compound 3.16 µM): 29.7% | viability, T/C [7]: 27.9% | viability, T/C [8]: 34.3% | viability, T/C [9]: 25.9% | viability, T/C (second compound 1 µM, first compound 0.316 µM): 23.9% | viability, T/C (second compound 1 µM, first compound 1 µM): 23.1% | viability, T/C (second compound 1 µM, first compound 3.16 µM): 22.5% | viability, T/C [10]: 38.3% | viability, T/C [11]: 27.3% | viability, T/C [12]: 25.5% | viability, T/C (second compound 3.16 µM, first compound 0.316 µM): 23.2% | viability, T/C (second compound 3.16 µM, first compound 1 µM): 26.9% | viability, T/C (second compound 3.16 µM, first compound 3.16 µM): 39.2% | viability, T/C [13]: 30.8% | viability, T/C [14]: 34.9% | viability, T/C [15]: 24.1% | viability, T/C (second compound 10 µM, first compound 0.316 µM): 26.7% | viability, T/C (second compound 10 µM, first compound 1 µM): 17.1% | viability, T/C (second compound 10 µM, first compound 3.16 µM): 24.5%

CN(C)C/C=C/C(=O)Nc1cc2c(Nc3ccc(F)c(Cl)c3)ncnc2cc1O[C@H]1CCOC1 + C=CC(=O)N1CCN(c2nc(=O)n(-c3c(C)ccnc3C(C)C)c3nc(-c4c(O)cccc4F)c(F)cc23)C(C)C1
IC50 (second compound 0.1 µM): > 100 nM | IC50 (second compound 0.316 µM): > 100 nM | IC50 (second compound 1 µM): > 100 nM | IC50 (second compound 3.16 µM): > 100 nM | IC50 (second compound 10 µM): > 100 nM | viability, T/C (second compound 0.1 µM, first compound 0.000316 µM): 104% | viability, T/C (second compound 0.1 µM, first compound 0.001 µM): 114% | viability, T/C (second compound 0.1 µM, first compound 0.00316 µM): 110% | viability, T/C [1]: 101% | viability, T/C [2]: 94.5% | viability, T/C [3]: 106% | viability, T/C (second compound 0.316 µM, first compound 0.000316 µM): 97.8% | viability, T/C (second compound 0.316 µM, first compound 0.001 µM): 106% | viability, T/C (second compound 0.316 µM, first compound 0.00316 µM): 91.8% | viability, T/C [4]: 101% | viability, T/C [5]: 103% | viability, T/C [6]: 117% | viability, T/C (second compound 1 µM, first compound 0.000316 µM): 110% | viability, T/C (second compound 1 µM, first compound 0.001 µM): 101% | viability, T/C (second compound 1 µM, first compound 0.00316 µM): 91.2% | viability, T/C [7]: 112% | viability, T/C [8]: 99.3% | viability, T/C [9]: 107% | viability, T/C (second compound 3.16 µM, first compound 0.000316 µM): 98.8% | viability, T/C (second compound 3.16 µM, first compound 0.001 µM): 64.3% | viability, T/C (second compound 3.16 µM, first compound 0.00316 µM): 93.2% | viability, T/C [10]: 107% | viability, T/C [11]: 89% | viability, T/C [12]: 103% | viability, T/C (second compound 10 µM, first compound 0.000316 µM): 86.4% | viability, T/C (second compound 10 µM, first compound 0.001 µM): 73.5% | viability, T/C (second compound 10 µM, first compound 0.00316 µM): 94.9% | viability, T/C [13]: 86.4% | viability, T/C [14]: 83.5% | viability, T/C [15]: 84.1%
